Reference: PubChem BioAssay AID248 (DTP/NCI, 2004)
“And” between values parts separate entries of the source, which are not always exact repeats. Identical values can stand only once. Inconclusive results and toxic doses are left out. Rule as the data show it: active = T/C of 150% or more; inactive = T/C below 125%.

Test system: L1210 leukemia ip in BDF1 mice, survival T/C
Experiment: NCI In Vivo Anticancer Drug Screen. Data for tumor model L1210 Leukemia (intraperitoneal) in B6D2F1 (BDF1) mice
Details: endpoint: mean survival time, higher = longer survival
Method in brief: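 Tumor was transplanted into mice, which were then dosed with test compound or vehicle alone. Survival was recorded for each group, and the treated figure was expressed relative to the control figure.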

[1] = dose: 100.0 mg/kg/injection, schedule: Q01DX001 (ip), vehicle: carboxymethylcellulose (CMC)
[2] = dose: 200.0 mg/kg/injection, schedule: Q01DX001 (ip), vehicle: carboxymethylcellulose (CMC)
[3] = dose: 400.0 mg/kg/injection, schedule: Q01DX001 (ip), vehicle: carboxymethylcellulose (CMC)
[4] = dose: 100.0 mg/kg/injection, schedule: Q01DX009 (ip), vehicle: Klucel (hydroxypropylcellulose) (HPC)
[5] = dose: 200.0 mg/kg/injection, schedule: Q01DX009 (ip), vehicle: Klucel (hydroxypropylcellulose) (HPC)
[6] = dose: 25.0 mg/kg/injection, schedule: Q01DX009 (ip), vehicle: Klucel (hydroxypropylcellulose) (HPC)
[7] = dose: 50.0 mg/kg/injection, schedule: Q01DX009 (ip), vehicle: Klucel (hydroxypropylcellulose) (HPC)
[8] = dose: 100.0 mg/kg/injection, schedule: Q01DX009 (ip), vehicle: saline with Tween-80
[9] = dose: 100.0 mg/kg/injection, schedule: Q04DX003 (ip), vehicle: saline with Tween-80
[10] = dose: 200.0 mg/kg/injection, schedule: Q01DX009 (ip), vehicle: saline with Tween-80
[11] = dose: 200.0 mg/kg/injection, schedule: Q04DX003 (ip), vehicle: saline with Tween-80
[12] = dose: 400.0 mg/kg/injection, schedule: Q01DX009 (ip), vehicle: saline with Tween-80
[13] = dose: 400.0 mg/kg/injection, schedule: Q04DX003 (ip), vehicle: saline with Tween-80
[14] = dose: 25.0 mg/kg/injection, schedule: Q04DX003 (ip), vehicle: Klucel (hydroxypropylcellulose) (HPC)
[15] = dose: 50.0 mg/kg/injection, schedule: Q04DX003 (ip), vehicle: Klucel (hydroxypropylcellulose) (HPC)
[16] = dose: 100.0 mg/kg/injection, schedule: Q04DX003 (ip), vehicle: Klucel (hydroxypropylcellulose) (HPC)
[17] = dose: 200.0 mg/kg/injection, schedule: Q04DX003 (ip), vehicle: Klucel (hydroxypropylcellulose) (HPC)
[18] = dose: 400.0 mg/kg/injection, schedule: Q04DX003 (ip), vehicle: Klucel (hydroxypropylcellulose) (HPC)
[19] = dose: 100.0 mg/kg/injection, schedule: Q01DX001 (ip), vehicle: saline
[20] = dose: 200.0 mg/kg/injection, schedule: Q01DX001 (ip), vehicle: saline
[21] = dose: 400.0 mg/kg/injection, schedule: Q01DX001 (ip), vehicle: saline

Measured: T/C

O=C(Nc1cccc(O)c1)Nc1cccc(C(F)(F)F)c1
inactive: [1] 92 % of control and 101 % of control | dose: 100.0 mg/kg/injection, schedule: Q01DX009 (ip), vehicle: carboxymethylcellulose (CMC) 94 % of control and 96 % of control | dose: 100.0 mg/kg/injection, schedule: Q04DX002 (ip), vehicle: carboxymethylcellulose (CMC) 92 % of control and 93 % of control | dose: 100.0 mg/kg/injection, schedule: Q04DX003 (ip), vehicle: carboxymethylcellulose (CMC) 95 % of control and 100 % of control | [2] 96 % of control and 87 % of control | dose: 200.0 mg/kg/injection, schedule: Q01DX009 (ip), vehicle: carboxymethylcellulose (CMC) 94 % of control and 100 % of control | dose: 200.0 mg/kg/injection, schedule: Q04DX002 (ip), vehicle: carboxymethylcellulose (CMC) 92 % of control and 86 % of control | dose: 200.0 mg/kg/injection, schedule: Q04DX003 (ip), vehicle: carboxymethylcellulose (CMC) 92 % of control and 91 % of control | [3] 92 % of control and 93 % of control | dose: 400.0 mg/kg/injection, schedule: Q01DX009 (ip), vehicle: carboxymethylcellulose (CMC) 100 % of control and 91 % of control | dose: 400.0 mg/kg/injection, schedule: Q04DX002 (ip), vehicle: carboxymethylcellulose (CMC) 95 % of control and 100 % of control | dose: 400.0 mg/kg/injection, schedule: Q04DX003 (ip), vehicle: carboxymethylcellulose (CMC) 87 % of control and 91 % of control

Nc1ncc(CCCCc2ccccc2)c(=O)[nH]1
inactive: dose: 100.0 mg/kg/injection, schedule: Q01DX001 (ip), vehicle: saline with Tween-80 96 % of control | dose: 200.0 mg/kg/injection, schedule: Q01DX001 (ip), vehicle: saline with Tween-80 93 % of control | dose: 400.0 mg/kg/injection, schedule: Q01DX001 (ip), vehicle: saline with Tween-80 98 % of control

CCN(CC)c1ccc(NC(=S)Nc2cccc(C(F)(F)F)c2)c(C)c1
inactive: [4] 93 % of control | [5] 90 % of control

CC1C(O)C(O)CC2COCC21 (stereo not given)
inactive: dose: 100.0 mg/kg/injection, schedule: Q01DX001 (ip), vehicle: saline sonified 91 % of control | dose: 200.0 mg/kg/injection, schedule: Q01DX001 (ip), vehicle: saline sonified 107 % of control | dose: 400.0 mg/kg/injection, schedule: Q01DX001 (ip), vehicle: saline sonified 113 % of control

CC(=O)Oc1c2c(n3c1CCC3)CC(C)(C)CC2=O
inactive: dose: 75.0 mg/kg/injection, schedule: Q04DX002 (ip), vehicle: Klucel (hydroxypropylcellulose) (HPC) 102 % of control | dose: 150.0 mg/kg/injection, schedule: Q04DX002 (ip), vehicle: Klucel (hydroxypropylcellulose) (HPC) 97 % of control | dose: 300.0 mg/kg/injection, schedule: Q04DX002 (ip), vehicle: Klucel (hydroxypropylcellulose) (HPC) 87 % of control

CC(C)CCOC(=O)Nc1cccc(Cl)c1
inactive: dose: 75.0 mg/kg/injection, schedule: Q01DX009 (ip), vehicle: saline with Tween-80 113 % of control | dose: 100.0 mg/kg/injection, schedule: Q04DX002 (ip), vehicle: saline with Tween-80 93 % of control | dose: 150.0 mg/kg/injection, schedule: Q01DX009 (ip), vehicle: saline with Tween-80 103 % of control | dose: 200.0 mg/kg/injection, schedule: Q04DX002 (ip), vehicle: saline with Tween-80 86 % of control | dose: 300.0 mg/kg/injection, schedule: Q01DX009 (ip), vehicle: saline with Tween-80 98 % of control | dose: 400.0 mg/kg/injection, schedule: Q04DX002 (ip), vehicle: saline with Tween-80 89 % of control

CC(C)Cc1ccccn1
inactive: [6] 96 % of control | [7] 98 % of control | [4] 91 % of control

c1cc(C2CCCCC2)ccc1-c1ccc(C2CCCCC2)cc1
inactive: [8] 94 % of control | [9] 98 % of control | [10] 94 % of control | [11] 101 % of control | [12] 97 % of control | [13] 90 % of control

O=C1C=CC(=O)N1C(c1ccccc1)c1ccccc1
inactive: dose: 12.5 mg/kg/injection, schedule: Q01DX009 (ip), vehicle: Klucel (hydroxypropylcellulose) (HPC) 102 % of control | [6] 102 % of control | [7] 102 % of control | dose: 50.0 mg/kg/injection, schedule: Q04DX002 (ip), vehicle: Klucel (hydroxypropylcellulose) (HPC) 94 % of control | dose: 100.0 mg/kg/injection, schedule: Q04DX002 (ip), vehicle: Klucel (hydroxypropylcellulose) (HPC) 88 % of control | dose: 200.0 mg/kg/injection, schedule: Q04DX002 (ip), vehicle: Klucel (hydroxypropylcellulose) (HPC) 101 % of control and 116 % of control and 91 % of control | dose: 400.0 mg/kg/injection, schedule: Q04DX002 (ip), vehicle: Klucel (hydroxypropylcellulose) (HPC) 91 % of control

c1ccc2c(c1)CCC1=C2CCCC1
inactive: [8] 96 % of control | [9] 101 % of control | [10] 98 % of control | [11] 89 % of control | [12] 91 % of control | [13] 92 % of control

Brc1ccc(C2=CSC3=NCCN23)cc1
inactive: [14] 96 % of control | [15] 96 % of control

COc1ccc2c3c1OC1c4[nH]ncc4CC4C(C2)N(C)CCC314 (stereo not given)
inactive: [16] 104 % of control | [17] 93 % of control | [18] 106 % of control

Cc1cnccc1N=Nc1ccc(N(C)C)cc1
inactive: [9] 104 % of control | [11] 104 % of control | [13] 101 % of control

CCOC(=O)CNC(=O)C1CSC(C)(C)N1C=O (stereo not given)
inactive: dose: 100.0 mg/kg/injection, schedule: Q04DX003 (ip), vehicle: saline 101 % of control | dose: 200.0 mg/kg/injection, schedule: Q04DX003 (ip), vehicle: saline 94 % of control | dose: 400.0 mg/kg/injection, schedule: Q04DX003 (ip), vehicle: saline 101 % of control

CCCCOCN(COCCCC)C(C)(C)C
inactive: [19] 93 % of control | [20] 98 % of control | [21] 117 % of control

CCCCCCCCCCCCCCCCNC(=O)C[N+](C)(C)Cc1ccccc1
inactive: dose: 2.5 mg/kg/injection, schedule: Q01DX009 (ip), vehicle: saline with Tween-80 101 % of control | dose: 5.0 mg/kg/injection, schedule: Q01DX009 (ip), vehicle: saline with Tween-80 98 % of control

CCN(CC)c1ccc(NC(=S)Nc2ccc(N(CC)CC)cc2)cc1
inactive: dose: 75.0 mg/kg/injection, schedule: Q01DX009 (ip), vehicle: Klucel (hydroxypropylcellulose) (HPC) 100 % of control | dose: 75.0 mg/kg/injection, schedule: Q04DX003 (ip), vehicle: saline 106 % of control | dose: 150.0 mg/kg/injection, schedule: Q01DX009 (ip), vehicle: Klucel (hydroxypropylcellulose) (HPC) 101 % of control | dose: 150.0 mg/kg/injection, schedule: Q04DX003 (ip), vehicle: saline 103 % of control | dose: 300.0 mg/kg/injection, schedule: Q01DX009 (ip), vehicle: Klucel (hydroxypropylcellulose) (HPC) 94 % of control | dose: 300.0 mg/kg/injection, schedule: Q04DX003 (ip), vehicle: saline 93 % of control

CC1=C(C(=O)O)C(c2ccccc2)CC(=O)N1 (stereo not given)
inactive: dose: 50.0 mg/kg/injection, schedule: Q01DX001 (ip), vehicle: carboxymethylcellulose (CMC) 96 % of control | [1] 104 % of control | [2] 98 % of control | [3] 98 % of control

c1ccc2c(c1)ncc1cccn12
inactive: [19] 103 % of control | [20] 103 % of control | [21] 103 % of control

CCOC(=O)/C(C#N)=C\c1oc2cc(C)c(C)cc2c1C
inactive: [4] 103 % of control | [16] 106 % of control | [5] 99 % of control | [17] 101 % of control | dose: 400.0 mg/kg/injection, schedule: Q01DX009 (ip), vehicle: Klucel (hydroxypropylcellulose) (HPC) 94 % of control | [18] 98 % of control

COc1ccc(NC(=O)Oc2ccccc2Cc2ccccc2)cc1
inactive: [7] 95 % of control | [4] 94 % of control | [16] 97 % of control | [5] 103 % of control | [17] 91 % of control

O=Cc1c(Cl)n(-c2ccccc2)c2c(C=O)cccc12
inactive: [14] 97 % of control | [15] 100 % of control | [16] 97 % of control

c1ccc2cc(-c3nc4cccc5c4n3CCC5)ccc2c1
inactive: [8] 97 % of control | [9] 92 % of control | [10] 95 % of control | [11] 89 % of control | [12] 98 % of control | [13] 94 % of control
